Test results reported in ChEMBL document CHEMBL5614397, “Discovery of pyrrolo[2,3-d]pyrimidin-4-one derivative YCH3124 as a potent USP7 inhibitor for cancer therapy” (Eur J Med Chem, 2024).
Calls of active or inactive are those of the source. No cut-off for these calls is given here.

Target: T1, Ubiquitin carboxyl-terminal hydrolase 25 (Homo sapiens) (UniProt Q9UHP3)
T1 sequence (whole entry): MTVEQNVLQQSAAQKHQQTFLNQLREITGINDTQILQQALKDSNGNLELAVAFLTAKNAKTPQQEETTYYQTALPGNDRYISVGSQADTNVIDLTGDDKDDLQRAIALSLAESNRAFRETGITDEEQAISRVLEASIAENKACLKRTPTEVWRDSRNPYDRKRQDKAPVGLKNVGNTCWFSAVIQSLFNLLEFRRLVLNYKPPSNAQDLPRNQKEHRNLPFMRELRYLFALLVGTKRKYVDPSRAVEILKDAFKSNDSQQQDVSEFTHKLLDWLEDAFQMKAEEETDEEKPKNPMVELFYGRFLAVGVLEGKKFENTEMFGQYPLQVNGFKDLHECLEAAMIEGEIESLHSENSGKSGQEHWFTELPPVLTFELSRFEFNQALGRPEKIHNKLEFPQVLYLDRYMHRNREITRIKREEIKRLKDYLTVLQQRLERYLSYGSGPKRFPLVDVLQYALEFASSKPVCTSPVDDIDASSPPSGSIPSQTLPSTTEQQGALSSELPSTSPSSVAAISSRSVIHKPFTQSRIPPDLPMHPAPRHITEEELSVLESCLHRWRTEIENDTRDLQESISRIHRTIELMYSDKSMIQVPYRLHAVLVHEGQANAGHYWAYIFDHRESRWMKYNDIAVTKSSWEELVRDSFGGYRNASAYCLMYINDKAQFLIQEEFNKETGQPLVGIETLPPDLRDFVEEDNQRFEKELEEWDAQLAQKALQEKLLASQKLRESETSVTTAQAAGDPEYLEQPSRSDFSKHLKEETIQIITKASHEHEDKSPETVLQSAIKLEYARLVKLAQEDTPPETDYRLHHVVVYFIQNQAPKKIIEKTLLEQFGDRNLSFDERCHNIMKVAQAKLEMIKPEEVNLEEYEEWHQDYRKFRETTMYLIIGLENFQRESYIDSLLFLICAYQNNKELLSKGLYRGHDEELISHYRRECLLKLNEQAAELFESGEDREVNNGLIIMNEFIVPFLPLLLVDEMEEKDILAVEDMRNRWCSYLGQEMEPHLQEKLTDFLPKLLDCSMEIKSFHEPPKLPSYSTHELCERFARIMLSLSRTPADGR
Test: Inhibition of USP25 (unknown origin) using Ub-AFC as substrate assessed as substrate cleavage at 1 to 10 uM preincubated for 15 mins followed by substrate addition and measured after 1 hrs by fluorescence assay
Conditions: dose 1-10 µM, time 75.0 min

Structure (SMILES): COc1ccc(-n2ccc3c(=O)n(CC4(O)CCN(C(=O)C[C@@H](C)c5ccccc5)CC4)cnc32)cc1OC
- inhibition: inactive
